Results from PubChem BioAssay (NCI).
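96-well plates; 48 h exposure; 5 concentrations. Endpoints by linear interpolation between flanking doses. Not reached: highest tested concentration assigned. Here, GI50 denotes the concentration required for 50% inhibition of growth. The concentration for full growth arrest is given as TGI.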

What was measured:
Experiment in all cases: NCI-60 cell line screen, 48 h
[1] = test system: SN12C renal
[2] = test system: UACC-257 melanoma
[3] = test system: NCI/ADR-RES ovarian
[4] = test system: TK-10 renal
[5] = test system: PC-3 prostate
[6] = test system: MALME-3M melanoma
[7] = test system: HCC-2998 colon
[8] = test system: EKVX NSCLC
[9] = test system: OVCAR-3 ovarian
[10] = test system: SK-MEL-2 melanoma
[11] = test system: MCF7 breast
[12] = test system: NCI-H522 lung
[13] = test system: SK-MEL-5 melanoma
[14] = test system: M14 melanoma
[15] = test system: 786-0 renal
[16] = test system: UACC-62 melanoma
[17] = test system: ACHN renal
[18] = test system: OVCAR-4 ovarian
[19] = test system: T-47D breast
[20] = test system: RXF 393 renal
[21] = test system: NCI-H460 lung
[22] = test system: NCI-H226 lung
[23] = test system: HT29 colon
[24] = test system: SF-295 CNS
[25] = test system: HOP-92 NSCLC
[26] = test system: CCRF-CEM leukemia
[27] = test system: HOP-62 NSCLC
[28] = test system: KM12 colon
[29] = test system: COLO 205 colon
[30] = test system: SR leukemia
[31] = test system: SW-620 colon
[32] = test system: OVCAR-8 ovarian
[33] = test system: A549 NSCLC
[34] = test system: NCI-H23 lung
[35] = test system: SF-539 CNS
[36] = test system: U251 CNS
[37] = test system: UO-31 renal
[38] = test system: OVCAR-5 ovarian
[39] = test system: SNB-19 CNS
[40] = test system: CAKI-1 renal
[41] = test system: A498 renal
[42] = test system: DU-145 prostate
[43] = test system: RPMI-8226 leukemia
[44] = test system: SK-MEL-28 melanoma
[45] = test system: LOX IMVI melanoma
[46] = test system: HCT-116 colon
[47] = test system: IGROV1 ovarian
[48] = test system: HS 578T breast
[49] = test system: K-562 leukemia
[50] = test system: SF-268 CNS
[51] = test system: HL-60(TB) leukemia
[52] = test system: BT-549 breast
[53] = test system: SNB-75 CNS
[54] = test system: MOLT-4 leukemia
[55] = test system: MDA-MB-435
[56] = test system: SK-OV-3 ovarian
[57] = test system: HCT-15 colon
[58] = test system: MDA-MB-231 breast

COc1cc(C2CC(c3cc(Cl)c(C)cc3O)=NN2c2ccc(S(N)(=O)=O)cc2)cc(OC)c1OC (stereo not given)
GI50 [1]: 2.97 µM
TGI [1]: 10.3 µM
GI50 [2]: 4.13 µM
TGI [2]: 15.2 µM
GI50 [3]: 2.58 µM
TGI [3]: 7.53 µM
GI50 [4]: 2.6 µM
TGI [4]: 6.6 µM
GI50 [5]: 2.27 µM
TGI [5]: 8.94 µM
GI50 [6]: 2.08 µM
TGI [6]: 4.89 µM
GI50 [7]: 1.84 µM
TGI [7]: 3.75 µM
GI50 [8]: 3.26 µM
TGI [8]: 43.7 µM
GI50 [9]: 2.19 µM
TGI [9]: 4.77 µM
GI50 [10]: 3.53 µM
TGI [10]: 12 µM
GI50 [11]: 2.77 µM
TGI [11]: 10.3 µM
GI50 [12]: 2.45 µM
TGI [12]: 6.73 µM
GI50 [13]: 2.02 µM
TGI [13]: 4.18 µM
GI50 [14]: 2.02 µM
TGI [14]: 4.29 µM
GI50 [15]: 2.21 µM
TGI [15]: 4.29 µM
GI50 [16]: 2.47 µM
TGI [16]: 8.5 µM
GI50 [17]: 2.78 µM
TGI [17]: 8.33 µM
GI50 [18]: 3.47 µM
TGI [18]: > 100 µM
GI50 [19]: 2.28 µM
TGI [19]: 7.06 µM
GI50 [20]: 2.9 µM
TGI [20]: 6.02 µM
GI50 [21]: 2.06 µM
TGI [21]: 3.87 µM
GI50 [22]: 3.73 µM
TGI [22]: 13.3 µM
GI50 [23]: 1.92 µM
TGI [23]: 4.28 µM
GI50 [24]: 1.8 µM
TGI [24]: 3.96 µM
GI50 [25]: 2.14 µM
TGI [25]: 6.99 µM
GI50 [26]: 4.51 µM
TGI [26]: > 100 µM
GI50 [27]: 2.1 µM
TGI [27]: 4.56 µM
GI50 [28]: 2.28 µM
TGI [28]: 5.1 µM
GI50 [29]: 1.72 µM
TGI [29]: 3.09 µM
GI50 [30]: 2.47 µM
TGI [30]: 7.35 µM
GI50 [31]: 3.35 µM
TGI [31]: 10.7 µM
GI50 [32]: 3.92 µM
TGI [32]: 12.9 µM
GI50 [33]: 4 µM
TGI [33]: 15.5 µM
GI50 [34]: 2.11 µM
TGI [34]: 5.32 µM
GI50 [35]: 1.77 µM
TGI [35]: 3.37 µM
GI50 [36]: 2.84 µM
TGI [36]: 8.89 µM
GI50 [37]: 2.19 µM
TGI [37]: 28.9 µM
GI50 [38]: 1.87 µM
TGI [38]: 4.28 µM
GI50 [39]: 4.61 µM
TGI [39]: 23.9 µM
GI50 [40]: 2.55 µM
TGI [40]: 16.9 µM
GI50 [41]: 4.15 µM
TGI [41]: 15.3 µM
GI50 [42]: 3.4 µM
TGI [42]: 11.2 µM
GI50 [43]: 2.66 µM
TGI [43]: 14.8 µM
GI50 [44]: 3 µM
TGI [44]: 7.86 µM
GI50 [45]: 2.08 µM
TGI [45]: 4.28 µM
GI50 [46]: 1.63 µM
TGI [46]: 2.98 µM
GI50 [47]: 2.23 µM
TGI [47]: 5.54 µM
GI50 [48]: 2.21 µM
TGI [48]: 7.02 µM
GI50 [49]: 3.22 µM
TGI [49]: 30.9 µM
GI50 [50]: 4.29 µM
TGI [50]: 34.2 µM
GI50 [51]: 2.95 µM
TGI [51]: 14.8 µM
GI50 [52]: 2.6 µM
TGI [52]: 7.01 µM
GI50 [53]: 2.45 µM
TGI [53]: 28.3 µM
GI50 [54]: 4.46 µM
TGI [54]: > 100 µM
GI50 [55]: 2.57 µM
TGI [55]: 8.47 µM
GI50 [56]: 3.71 µM
TGI [56]: 11.4 µM
GI50 [57]: 3.28 µM
TGI [57]: 11.8 µM
GI50 [58]: 2.09 µM
TGI [58]: 5.01 µM

O=C(N/N=C\c1cc(Br)cc(Br)c1O)N/N=C/c1cc(Br)cc(Br)c1O
GI50 [1]: 4.56 µM
TGI [1]: 17.8 µM
GI50 [2]: 2.48 µM
TGI [2]: 8.92 µM
GI50 [3]: 3.16 µM
TGI [3]: 16 µM
GI50 [4]: 10.6 µM
TGI [4]: 26.2 µM
GI50 [5]: 2.9 µM
TGI [5]: 16.7 µM
GI50 [6]: 11.5 µM
TGI [6]: 31.3 µM
GI50 [7]: 13.4 µM
TGI [7]: 32.5 µM
GI50 [8]: 4.09 µM
TGI [8]: 17.8 µM
GI50 [9]: 4.03 µM
TGI [9]: 16.3 µM
GI50 [10]: 11.2 µM
TGI [10]: 24 µM
GI50 [11]: 2.89 µM
TGI [11]: 12.3 µM
GI50 [12]: 3.08 µM
TGI [12]: 13.8 µM
GI50 [13]: 1.83 µM
TGI [13]: 4.69 µM
GI50 [14]: 4.29 µM
TGI [14]: 19 µM
GI50 [15]: 10.1 µM
TGI [15]: 23.1 µM
GI50 [16]: 1.8 µM
TGI [16]: 10.2 µM
GI50 [17]: 4.06 µM
TGI [17]: 13.5 µM
GI50 [18]: 2.5 µM
TGI [18]: 12.9 µM
GI50 [19]: 4.02 µM
TGI [19]: 17.7 µM
GI50 [20]: 3.57 µM
TGI [20]: 27.3 µM
GI50 [21]: 3.11 µM
TGI [21]: 11.5 µM
GI50 [22]: 2.23 µM
TGI [22]: 9.82 µM
GI50 [23]: 5.93 µM
TGI [23]: 18.3 µM
GI50 [24]: 2.48 µM
TGI [24]: 15.7 µM
GI50 [25]: 1.85 µM
TGI [25]: 16.4 µM
GI50 [26]: 0.534 µM
TGI [26]: 4.48 µM
GI50 [27]: 8.99 µM
TGI [27]: 22.8 µM
GI50 [28]: 2.9 µM
TGI [28]: 11.7 µM
GI50 [29]: 3.92 µM
TGI [29]: 14.6 µM
GI50 [30]: 1.13 µM
TGI [30]: 26.7 µM
GI50 [31]: 4.52 µM
TGI [31]: 19.6 µM
GI50 [32]: 2.88 µM
TGI [32]: 16.7 µM
GI50 [33]: 3.74 µM
TGI [33]: 14.6 µM
GI50 [34]: 6.21 µM
TGI [34]: 23.5 µM
GI50 [35]: 1.73 µM
TGI [35]: 11 µM
GI50 [36]: 2.14 µM
TGI [36]: 15.7 µM
GI50 [37]: 1.8 µM
TGI [37]: 8.7 µM
GI50 [38]: 10.6 µM
TGI [38]: 27.6 µM
GI50 [39]: 3.65 µM
TGI [39]: 17.7 µM
GI50 [40]: 3.29 µM
TGI [40]: 15.9 µM
GI50 [41]: 7.81 µM
TGI [41]: 22.8 µM
GI50 [42]: 4.63 µM
TGI [42]: 15.5 µM
GI50 [43]: 2.72 µM
TGI [43]: 10.6 µM
GI50 [44]: 2.79 µM
TGI [44]: 16.1 µM
GI50 [45]: 2.57 µM
TGI [45]: 12.1 µM
GI50 [46]: 5.96 µM
TGI [46]: 22.3 µM
GI50 [48]: 19.8 µM
TGI [48]: 51.2 µM
GI50 [49]: 0.7 µM
TGI [49]: 14.3 µM
GI50 [50]: 1.47 µM
TGI [50]: 12 µM
GI50 [51]: 1.28 µM
TGI [51]: 4.76 µM
GI50 [52]: 5.54 µM
TGI [52]: 25.7 µM
GI50 [53]: 1.11 µM
TGI [53]: 15.6 µM
GI50 [54]: 2.14 µM
TGI [54]: 11.4 µM
GI50 [55]: 2.67 µM
TGI [55]: 17.8 µM
GI50 [56]: 5.21 µM
TGI [56]: 16.6 µM
GI50 [57]: 2.77 µM
TGI [57]: 16.1 µM
GI50 [58]: 4.18 µM
TGI [58]: 17.5 µM
